Experimental data: patent US7408071B2, “N-aryl pyrrolidine derivatives as beta-secretase inhibitors” (Bristol-Myers Squibb Company, priority 2006, dated 2008)

Biological target: T1, BACE1 enzyme (Homo sapiens, UniProt P56817)
T1 construct: The HEK293-9B.A1 cell line, which overexpresses the BACE1 enzyme, was derived from HEK293 cells; endogenous in cells; washed 48,000xg membrane pellet/homogenate
Test: Radioligand displacement assay with a radiolabeled BACE inhibitor on HEK293-9B.A1 cell homogenate
Format: binding
Conditions: displacement of 1 nM tritiated radioligand, HEK293-9B.A1 homogenate, pH 5.0, 1.5 hr at 25° C.; read-out: Activity Rating (activity based on IC50 values)
Description: There are a number of methods by which inhibitors of the BACE enzyme can be identified experimentally. The enzyme can be obtained from membrane samples from natural tissues or cultured cells or can be expressed recombinantly in a host cell by well known methods of molecular biology. The whole enzyme or a portion thereof can be expressed, for example, in bacterial, insect or mammalian cells to obtain a catalytically active enzyme species. The enzymatic activity and/or ligand binding capability of the enzyme can be assessed within these membrane samples, or the enzyme can be purified to varying extents. As an illustrative example, the nucleic acid sequence encoding the pro and catalytic domains of human BACE can be appended on the 5′ end with an untranslated and signal sequence from the gene for acetylcholinesterase, and on the 3′ end with a sequence encoding a poly-histidine tag. This cDNA can then be expressed in Drosophila melanogaster S2 cells in which the signal and pro sequences of the transcribed/translated protein are removed by cellular proteases and the catalytic domain, appended by a C-terminal poly-histidine tag, is secreted out into the cellular medium. The enzyme can then be purified from the culture medium by nickel affinity chromatography by methods well known to those trained in the art [Mallender, W. et al., (2001) “Characterization of recombinant, soluble beta-secretase from an insect cell expression system.” Mol. Pharmacol. 59: 619-626]. Similar strategies for expressing and purifying various forms of BACE in bacterial, mammalian and other cell types would be known to one skilled in the art. A preferred method for determining the potency of a test compound in binding to the BACE enzyme is by monitoring the displacement of a suitable radioligand.
Radioligand displacement assays with a radiolabeled BACE inhibitor (WO 2004 013098, compound 3, where the methoxy group is substituted for C(^3H)3) were carried out using standard methods (Keen, M. (1999) in Receptor Binding Techniques (Walker, J. M. ed) p. 106 Humana Press, Totowa, N.J.). The HEK293-9B.A1 cell line, which overexpresses the BACE1 enzyme, was derived from HEK293 cells (Simmons, N. L. (1990) A cultured human renal epithelioid cell line responsive to vasoactive intestinal peptide. Exp. Physiol. 75:309-19.) by RAGE™ (Harrington, J. J. et al. (2001) Creation of genome-wide protein expression libraries using random activation of gene expression. Nat. Biotechnol. 19:440-5.; U.S. Pat. Nos. 6,410,266 and 6,361,972). T225 flask cultures of HEK293-9B.A1 were grown to 80% confluency in DMEM supplemented with 2 mM L-glutamine, 10 μg/ml penicillin, 10 μg/ml streptomycin, 3 μg/ml puromycin, 100 nM methotrexate, and 10% fetal bovine serum (Invitrogen, Carlsbad, Calif.), harvested, and resuspended at 2×10^8 cells per 10 ml of lysis buffer consisting of 50 mM HEPES pH 7.0 containing a protease inhibitor cocktail of AEBSF 104 μM, aprotinin 80 nM, leupeptin 2 μM, bestatin 4 μM, pepstatin A 1.5 μM, and E-64 1.4 μM (0.1% of protease inhibitor cocktail P8340, Sigma-Aldrich, St. Louis, Mo.) at 4° C. The resuspended cells were homogenized using a Polytron (Brinkman, Westbury, N.Y.) at setting 6 for 10 sec., then centrifuged at 48,000×g for 10 min. The resulting pellet was washed by repeating the resuspension, homogenization and centrifugation steps. The final pellet was resuspended in buffer at 4° C. to yield a total protein concentration of 5 mg/ml, then aliquots were frozen in liquid nitrogen for further storage at −70° C. Immediately before carrying out a binding assay, an aliquot of cell homogenate was thawed and diluted to a concentration of 100 μg/ml in assay buffer consisting of 50 mM HEPES pH 5.0 and 0.1% CHAPSO. […]

T1 sequence (P56817 46-501): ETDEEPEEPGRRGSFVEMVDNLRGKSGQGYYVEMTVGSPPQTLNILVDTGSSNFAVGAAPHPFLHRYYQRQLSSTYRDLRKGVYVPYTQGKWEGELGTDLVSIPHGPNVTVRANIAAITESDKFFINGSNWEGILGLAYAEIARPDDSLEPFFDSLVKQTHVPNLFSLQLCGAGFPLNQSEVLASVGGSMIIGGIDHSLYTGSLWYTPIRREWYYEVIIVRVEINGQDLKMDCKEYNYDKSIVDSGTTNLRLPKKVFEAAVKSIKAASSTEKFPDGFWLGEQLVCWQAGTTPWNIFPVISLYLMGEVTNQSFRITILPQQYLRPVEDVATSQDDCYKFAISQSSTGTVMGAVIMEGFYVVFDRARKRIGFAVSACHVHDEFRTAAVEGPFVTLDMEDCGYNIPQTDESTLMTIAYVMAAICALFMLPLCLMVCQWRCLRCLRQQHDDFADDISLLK

N/C(=N\C(=O)[C@@H]1CCCN1c1ccccc1)NCc1cc(Cl)c(N)c(Cl)c1 [Example 1, (S)—N-((4-Amino-3,5-dichlorobenzylamino)(amino)methylene)-1-phenylpyrrolidine-2-carboxamide]
IC50: 100 to 1000 nM

CC(=O)Nc1c(Cl)cc(CN/C(N)=N/C(=O)[C@@H]2CCCN2c2ccccc2)cc1Cl [Example 2, (S)—N-((4-Acetamido-3,5-dichlorobenzylamino)(amino)methylene)-1-phenylpyrrolidine-2-carboxamide]
IC50: 100 to 1000 nM

CN(C)CC(=O)Nc1c(Cl)cc(CN/C(N)=N/C(=O)[C@@H]2CCCN2c2ccccc2)cc1Cl [Example 3, (S)—N-((3,5-Dichloro-4-(2-(dimethylamino)-acetamido)-benzylamino)(amino)methylene)-1-phenylpyrrolidine-2-carboxamide]
IC50: 100 to 1000 nM

COc1ccc(N2CCC[C@H]2C(=O)/N=C(\N)NCc2cc(Cl)c(N)c(Cl)c2)cc1 [Example 4, (S)—N-((4-Amino-3,5-dichlorobenzylamino)(amino)methylene)-1-(4-methoxyphenyl)pyrrolidine-2-carboxamide]
IC50: 100 to 1000 nM

COc1ccc(N2CCC[C@H]2C(=O)/N=C(\N)NCc2cc(Cl)c(NC(C)=O)c(Cl)c2)cc1 [Example 5, (S)—N-((4-Acetamido-3,5-dichlorobenzylamino)(amino)methylene)-1-(4-methoxyphenyl)pyrrolidine-2-carboxamide]
IC50: 100 to 1000 nM

COc1ccc(N2CCC[C@H]2C(=O)/N=C(\N)NCc2cc(Cl)c(NC(=O)CN(C)C)c(Cl)c2)cc1 [Example 6, (S)—N-((3,5-Dichloro-4-(2-(dimethylamino)acetamido)benzylamino)-(amino)methylene)-1-(4-methoxyphenyl)pyrrolidine-2-carboxamide]
IC50: 100 to 1000 nM

CN(C)CC(=O)Nc1c(Cl)cc(CN/C(N)=N/C(=O)[C@H]2CCCN2c2ccc(C(F)(F)F)cc2)cc1Cl [Example 31, (R)—N-(Amino(3,5-dichloro-4-(2-(dimethylamino)acetamido)-benzylamino)methylene)-1-(4-(trifluoromethyl)phenyl)pyrrolidine-2-carboxamide]
IC50: < 100 nM

CO[C@@H]1C[C@@H](C(=O)/N=C(\N)NCc2cc(Cl)c(NC(C)=O)c(Cl)c2)N(c2ccccc2)C1 [Example 32, (2S,4R)—N-((4-Acetamido-3,5-dichlorobenzylamino)(amino)-methylene)-4-methoxy-1-phenylpyrrolidine-2-carboxamide]
IC50: < 100 nM

CO[C@@H]1C[C@@H](C(=O)/N=C(\N)NCc2cc(Cl)c(NC(=O)CN(C)C)c(Cl)c2)N(c2ccccc2)C1 [Example 33, (2S,4R)—N-(Amino(3,5-dichloro-4-(2-(dimethylamino)acetamido)benzylamino)methylene)-4-methoxy-1-phenylpyrrolidine-2-carboxamide]
IC50: < 100 nM

CC(=O)Nc1c(Cl)cc(CN/C(N)=N/C(=O)C2C3CC3CN2c2ccccc2)cc1Cl (stereo not drawn) [Example 34, cis-N-((4-Acetamido-3,5-dichlorobenzylamino)(amino)methylene)-3-phenyl-3-azabicyclo[3.1.0]hexane-2-carboxamide]
IC50: 100 to 1000 nM
